System: NIE-115 mouse neuroblastoma
Assay: SHG and 2PF voltage sensitivity, 50 mV step, slow switching protocol on patch-clamped neuroblastoma cell
Type: cell-based
Conditions: comparator named in the sentence (PY-1266; PY-1268)
Source text: For full details of our non-linear imaging microscope, we refer the reader to previously published descriptions. A. C. Millard, P. J. Campagnola, W. Mohler, A. Lewis, and L. M. Loew, “Second Harmonic Imaging Microscopy,” Meth. Enzymol. 361, 47-69 (2003); Millard, A. C., L. Jin, and L. M. Loew, “Second Harmonic Generation Imaging Microscopy with a High Power Ultrafast Fiber Laser,”Commercial and Biomedical Applications of Ultrafast Lasers. 5714-5716, 92-98 (2005); A. C. Millard, L. Jin, M.-D. Wei, J. P. Wuskell, A. Lewis, and L. M. Loew, “Sensitivity of Second Harmonic Generation from Styryl Dyes to Transmembrane Potential,” Biophys. J. 86, 1169-1176 (2004). Our current microscope combines a Fluoview (Olympus) scan-head and an Axiovert (Zeiss) inverted microscope constructed for multiple imaging methodologies including wide-field, one-photon excitation fluorescence imaging, as well as SHG and 2PF imaging. Our laser sources include a Mira (Coherent) Ti:sapphire laser and a Femtopower (Fianium) fiber laser operating at 1064 nm. […] Fluorescence is imaged (for linear imaging) or collected (for non-linear imaging) back through the excitation objective, while SHG is collected in the forward, transmitted light direction by a condenser, either 0.8 NA or 0.55 NA (Zeiss). […]

## CCN(CC)c1ccc(-c2ccc(/C=C/c3cc[n+](CCC[N+](CC)(CC)CC)cc3)s2)s1 [PY-1261, Di-2-BTEPPTEA]
  SHG signal sensitivity relative to another dye: more than five times larger

From patent publication US8129532B2, “Amino(oligo)thiophene dyes, preparation thereof, and optical methods of use” (The University of Connecticut, priority 2007, dated 2012)
